Experimental data as given in patent publication US9429582B2, “Tyrosine-phosphorylated WBP2, a novel cancer target and biomarker” (National University of Singapore, priority 2010, dated 2016).
Read-outs that look alike come from different tables or passages of the source.

How the values were obtained:
Type in all cases: cell-based, human
[1] = tested on: WBP2-Y192-231E mutant-expressing MCF7; assay: Cell proliferation (MTS / cell numbers) of WBP2-Y192-231E mutant-expressing MCF7
Experimental: (§1) A: Whole cell lysates from vector, WBP2-WT, WBP2-Y192-231E mutant and WBP2-Y192-231F mutant expressing MCF7 or Y192-231E mutant expressing MCF7 with WBP2 knockdown were used for IB analysis with antibodies indicated. B: Vector, WBP2-WT, WBP2-Y192-231E mutant or WBP2-Y192-231F mutant-expressing MCF7 were co-transfected with TOPFlash (top panel) or ERE-Luciferase (bottom panel) reporter construct. For cells co-transfected ERE-luciferase, they were either left alone or stimulated with 50 ng/ml Wnt3a ligand for 16 hrs. TCF/ERα luciferase activities in various conditions were then assayed. **P<0.01, ***P<0.001, Student's t-test (2-tailed). C: Vector or WBP2-Y192-231E mutant-expressing MCF7 were treated with indicated concentrations of Tamoxifen(Tam) and/or FH535. Cell numbers were measured. D: Whole cell lysates from WBP2-Y192-231E mutant-expressing MCF7 treated with 2 μM Tam and/or 15 μM FH5353 were harvested at day 2-4 post-treatment and used for IB analysis with antibodies indicated.
Effect of knockdown of E2F1 and E2F3 on MCF7 cells overexpressing WBP2-Y192-231E. A. MCF7 cells expressing WBP2-Y192-231E were transfected with indicated siRNAs and knockdown efficiency was confirmed using western blotting. B. Cells were co-transfected with indicated siRNAs and E2F reporter plasmid and harvested for luciferase assay after 48 hours. Luciferase readings were normalized against constitutive TK promoter renilla luciferase readings. C. Cells were transfected with indicated siRNAs and BrdU incorporation assay was performed. Percentages of BrdU positive cells relative to control siRNA treated cells were plotted as bar charts. D. Cells were transfected with indicated siRNAs. MTS assay was performed on day 3. Percentages of cell proliferation relative to control siRNA treated cells were plotted as bar charts.
Whole cell lysates from vector, WBP2-WT, WBP2-Y192-231E mutant and WBP2-Y192-231F mutant expressing MCF7 (A) or Y192-231E mutant expressing MCF7 with WBP2 knockdown (B) were used for IB analysis with antibodies indicated. Their expression levels were quantified in three independent experiments and the averages were presented relative to actin. Representative blots (order in lanes from left to right: vector, WBP2, Y192-231E, Y192F) were presented as insets to the bar graphs. **P<0.01, ***P<0.001, Student's t-test (2-tailed) relative to vector. Vector, WBP2-WT, WBP2-Y192-231E mutant or WBP2-Y192-231F mutant-expressing MCF7 were cotransfected with TOPFlash(C) or ERE-Luciferase(D) reporter construct. For cells co-transfected ERE luciferase, they were either left alone or stimulated with 50 ng/ml Wnt3a ligand for 16 hrs. TCF(C)/ER[…](D) luciferase activities in various conditions were then assayed and analyzed in relative to untreated vector control. **P<0.01, ***P<0.001, Student's t-test (2-tailed). E: Vector or WBP2-Y192-231E mutant-expressing MCF7 were treated with indicated concentrations of 2 µM tamoxifen (Tam) and/or 15 µM FH535 for 4 days. Cell numbers were measured daily and compared in relative to vehicle treated vector-expressing cells on Day 0. F: Vector or WBP2-Y192-231E mutant-expressing MCF7 were treated with indicated concentrations (0-50 µM) of FH535 for 2 days. Cell numbers were measured and compared in relative to vehicle-treated cells. Their […] were analyzed statistically with SPSS 13.0. G: Whole cell lysates from WBP2-Y192-231E mutant-expressing MCF7 treated with 2 μM Tam and/or 15 μM FH5353 were harvested at day 2-4 post-treatment and used for IB analysis with antibodies indicated. H: Vector or WBP2-Y192-231E mutant-expressing MCF7 were treated with indicated concentrations of 100 nM fulvestrant and/or 15 µM FH535 for 4 days. Cell numbers were measured on day 2 and day 4 and compared in relative to vehicle-treated control at each day (Top Panel). These treated cells were harvested for IB analysis with antibodies indicated (Bottom Panel). […]

ERα = assay: Immunoblot of ERα expression in drug-treated WBP2-Y192-231E mutant-expressing MCF7
Experimental: For cells co-transfected ERE-luciferase, they were either left alone or stimulated with 50 ng/ml Wnt3a ligand for 16 hrs. TCF/ERα luciferase activities in various conditions were then assayed. **P<0.01, ***P<0.001, Student's t-test (2-tailed). […] Cell numbers were measured.
Their expression levels were quantified in three independent experiments and the averages were presented relative to actin. […] For cells co-transfected ERE luciferase, they were either left alone or stimulated with 50 ng/ml Wnt3a ligand for 16 hrs. TCF(C)/ER[…](D) luciferase activities in various conditions were then assayed and analyzed in relative to untreated vector control. **P<0.01, ***P<0.001, Student's t-test (2-tailed). […] Cell numbers were measured daily and compared in relative to vehicle treated vector-expressing cells on Day 0. […] Cell numbers were measured and compared in relative to vehicle-treated cells. […] Cell numbers were measured on day 2 and day 4 and compared in relative to vehicle-treated control at each day (Top Panel). These treated cells were harvested for IB analysis with antibodies indicated (Bottom Panel).
First, we exposed WBP2 phospho-mimic expressing MCF7 cells to serial concentrations of fulvestrant (0.1 nM, 1 nM, 10 nM, 100 nM and 1 μM) and probed for ERα expression to determine the effective working concentration. […] Next, we compared the growth and proliferation of WBP2 phospho-mimic mutant expressing MCF7 in the presence of 100 nM fulvestrant or 15 μM FH535.

vector-expressing MCF7 = assay: Cell proliferation (MTS / cell numbers) of vector-expressing MCF7; details: Homo sapiens, 96 h; MCF7 cells expressing vector; day 4; 100 nM fulvestrant or 15 μM FH535; read-out: inhibition of growth / reduction of proliferation
Experimental: as §1
Whole cell lysates from vector, WBP2-WT, WBP2-Y192-231E mutant and WBP2-Y192-231F mutant expressing MCF7 (A) or Y192-231E mutant expressing MCF7 with WBP2 knockdown (B) were used for IB analysis with antibodies indicated. Their expression levels were quantified in three independent experiments and the averages were presented relative to actin. Representative blots (order in lanes from left to right: vector, WBP2, Y192-231E, Y192F) were presented as insets to the bar graphs. **P<0.01, ***P<0.001, Student's t-test (2-tailed) relative to vector. […] TCF(C)/ER[…](D) luciferase activities in various conditions were then assayed and analyzed in relative to untreated vector control. **P<0.01, ***P<0.001, Student's t-test (2-tailed). […] Cell numbers were measured daily and compared in relative to vehicle treated vector-expressing cells on Day 0. […] Cell numbers were measured and compared in relative to vehicle-treated cells. Their […] were analyzed statistically with SPSS 13.0. […] Cell numbers were measured on day 2 and day 4 and compared in relative to vehicle-treated control at each day (Top Panel). […]

For `C[C@]12CC[C@@H]3c4ccc(O)cc4C[C@@H](CCCCCCCCC[S+]([O-])CCCC(F)(F)C(F)(F)F)[C@H]3[C@@H]1CC[C@@H]2O` (stereo partly drawn) [fulvestrant], the inhibition at 0.1 µM ([1]; Homo sapiens, 96 h, MCF7 cells expressing Y192-231E mutant, day 4, 100 nM fulvestrant or 15 μM FH535, read-out: inhibition of growth / reduction of proliferation) was about 40%, the ERα expression (ERα; WBP2 phospho-mimic expressing MCF7, one hundred nM fulvestrant, data not shown) was “almost completely abolished” and the inhibition at 0.1 µM (vector-expressing MCF7) was about 50%.

For `CC/C(=C(\c1ccccc1)c1ccc(OCCN(C)C)cc1)c1ccccc1` [Tamoxifen], the growth inhibition ([1]; Y192-231E-expressing MCF7 treated with Tamoxifen) was “No significant growth inhibition”, the retardation of proliferation ([1]; Y192-231E-expressing cells, higher doses of up to 2000 nM) was “unremarkable” and the ERα expression (ERα) was “but not Tamoxifen significantly reduced”.
